Patent US20250145715A1, “B7-H3 TARGETING FUSION PROTEINS AND METHODS OF USE THEREOF” (GT Biopharma, Inc., priority 2021, published 2025)

Legend:
[1] = tested on: normal immune cells (PBMCs); assay: Background NK cell activity in PBMCs without tumor targets; format: cell-based, human
Protocol: (§1) ADCC was measured in a flow cytometry assay by evaluating degranulation via CD107a (lysosomal-associated membrane protein LAMP-1) and intracellular IFNγ production. Upon thawing, normal donor and patient-derived PBMCs or ascites cells were rested overnight (37° C., 5% CO2) in RPMI 1640 media supplemented with 10% fetal calf serum (RPMI-10). The next morning, they were suspended with tumor-target cells or media after washing twice with RPMI-10. Cells were then incubated with TriKEs or controls for 10 min at 37° C. Fluorescein isothiocyate (FITC)-conjugated anti-human CD107a monoclonal antibody (BD Biosciences, San Jose, CA, USA) was then added. […] Samples were washed and evaluated in an LSRII flow cytometer (BD Biosciences, San Jose, CA, USA).
(§2) The ability of cam1615B7-H3 TriKE to mediate NK cell activity against ovarian cancer cells was evaluated. […] In order to determine if the individual components of the TriKE could induce NK cell activity on their own, the individual cam16 VHH, IL-15, or anti-B7-H3 scFv components were incubated with PBMCs and OVCAR8 cells and activity was determined. […] NK cell activity, from normal donor PBMCs and ascites from the peritoneal cavity of ovarian cancer patients at the time of surgery, was assessed against MA-148 cells, another high-grade serous ovarian adenocarcinoma cell line (FIGS. 29A-29B and 30G-30H). […]

[2] = tested on: OVCAR3 ovarian cancer cells; assay: NK cell CD107a / IFNγ flow cytometry against OVCAR3; format: cell-based, human; conditions: 30 nM, E:T 2:1, 4 hrs; vs no treatment and rhIL-15 alone
Protocol: Healthy donor or ovarian cancer PBMC cells were incubated with ovarian tumor targets at 2:1 E:T ratio for 4 hrs with 30 nM TriKE or control condition. FIG. 30A is a graph illustrating pooled proportion of NK cells from healthy donors expressing CD107a+ (degranulation) against OVCAR8 targets (N=8). FIG. 30B is a graph illustrating pooled proportion of NK cells from healthy donors expressing IFNγ cytokine production against OVCAR8 targets (N=8). FIG. 30C is a graph illustrating pooled proportion of NK cells from healthy donors expressing CD107a+ (degranulation) against OVCAR3 targets (N=4). […] FIG. 30I is a graph illustrating that tumor killing was evaluated using IncuCyte imaging assay. […] The percentage of Live (Nuclight Red+Caspase 3/7−) tumor cells was quantified over a 48-h period and normalized to tumor alone. Readings were obtained every 15 min (representative of four separate experiments). * p<0.05, ** p<0.01, *** p<0.001, and **** p<0.0001.
ADCC was measured in a flow cytometry assay by evaluating degranulation via CD107a (lysosomal-associated membrane protein LAMP-1) and intracellular IFNγ production. […] Samples were washed and evaluated in an LSRII flow cytometer (BD Biosciences, San Jose, CA, USA).
The ability of cam1615B7-H3 TriKE to mediate NK cell activity against ovarian cancer cells was evaluated. […]

[3] = tested on: ovarian cancer cell lines; assay: NK cell activation against ovarian cancer lines vs K562 / Raji; format: cell-based
Protocol: as §1, §2

cam1615B7-H3: second-generation TriKE: humanized camelid anti-CD16 VHH, human wild-type IL-15, anti-B7-H3 mAb 376.96 scFv; SEQ ID NO:1
background NK cell IFNγ [1]: No background noise | background NK cell degranulation (CD107a) [1]: some background degranulation (CD107a) on NK cells in comparison to controls, but this activity was low | NK cell degranulation against OVCAR3 [2]: robust | NK cell intracellular IFNγ production against OVCAR3 [2]: robust | IFNγ production against ovarian cancer vs K562 natural cytotoxicity signal ([3]; K562 in the absence of TriKE): stronger IFNγ production | fold NK cell activation (PBMC+Tumor+TriKE divided by PBMC+TriKE alone) ([3]; all ovarian cancer cell lines vs Raji): higher than activation by the B7-H3-negative Raji line
